The record followed here is patent US20240350488A1, “METHODS OF TREATING SWI/SNF DEREGULATED CANCERS” (Fred Hutchinson Cancer Center, priority 2023, published 2024).

One assay has as its system PDX1 (ARID1A low). Kind of assay: Pre-clinical trial of patient derived xenograft treated with HHT. As to conditions: ARID1A low model; HHT 0.7 mg/kg twice daily by oral gavage. The class given is in vivo, mouse. From the text: (§1) Arid1a^LoxP/LoxP (Jackson Laboratory), ROSA-LSL-Yfp^KI/KI (Jackson Laboratory), and UBC-Cre^ERT2 (Jackson Laboratory). eEF2K^−/− animals were kindly provided by Alexey G. Ryazanov (Rutgers University). UBC-Cre^ERT2;ROSA-LSL-Yfp^KI/KI;Arid1a^LoxP/LoxP animals (mixed background) were bred to Eef2k^−/− animals (C57BL/6) for one generation to produce progeny heterozygous at all loci (ROSA-LSL-Yfp^KI/+;Arid1a^LoxP/+; eEF2K^+/−) with or without UBC-Cre^ERT2. Heterozygous animals without UBC-Cre^ERT2 were backcrossed once more to ROSA-LSL-Yfp^KI/KI;Arid1a^LoxP/LoxP animals to reintroduce homozygosity at the ARID1A and ROSA-LSL-Yfp, while maintaining heterozygosity at the Eef2k locus (ROSA-LSL-Yfp^KI/KI; Arid1a^LoxP/LoxP; Eef2K^+/−; with and without UBC-Cre^ERT2). […] For survival studies, the body weight of the mouse was recorded and monitored every two days for the duration of the survival trial.
(§2) Tumor pieces (1×1×1 mm) were implanted into the flank of 4-6 weeks old NOD-SCID γ IL-2 mice. Xenografts were measured every 2 days and tumor volume was calculated using the formula (L×W×W)/2, where L is the length of the tumor and W its width. […]
In general terms: A xenograft is tissue or cells of one species grown in another, often human tumour cells in immunodeficient mice.

The subject of the next assay is PDX2 (ARID1A medium). The assay is described as above. The class given is in vivo, mouse. As to conditions: ARID1A medium model; HHT 0.7 mg/kg twice daily by oral gavage.
Text: as §1, §2

Regarding `COC(=O)C[C@](O)(CCCC(C)(C)O)C(=O)O[C@@H]1C(OC)=C[C@]23CCCN2CCc2cc4c(cc2[C@H]13)OCO4` [HHT, homoharringtonine], the figures for the “decrease in tumor growth” value in the assay on PDX1 (ARID1A low) and in the assay on PDX2 (ARID1A medium) were 59.3% and 35.9%, respectively.
